Assay [1] has as its target T1, human recombinant adrenergic α2B receptor (Homo sapiens, UniProt P18089).
T1 construct: expressed in transfected cells; host or cells: CHO-K1
T1 sequence (P18089 1-450): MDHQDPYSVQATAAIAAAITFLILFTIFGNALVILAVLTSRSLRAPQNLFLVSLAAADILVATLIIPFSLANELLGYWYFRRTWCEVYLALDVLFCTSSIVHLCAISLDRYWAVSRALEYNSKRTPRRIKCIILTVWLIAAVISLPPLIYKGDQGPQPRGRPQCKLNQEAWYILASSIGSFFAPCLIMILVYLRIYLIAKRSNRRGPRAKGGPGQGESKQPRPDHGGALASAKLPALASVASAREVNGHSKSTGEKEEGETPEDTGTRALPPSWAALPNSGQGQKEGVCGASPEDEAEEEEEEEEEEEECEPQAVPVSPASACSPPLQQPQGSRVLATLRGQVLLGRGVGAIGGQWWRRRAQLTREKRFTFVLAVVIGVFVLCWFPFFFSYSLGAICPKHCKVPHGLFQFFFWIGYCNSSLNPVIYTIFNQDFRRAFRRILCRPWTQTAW
Briefly: Radioligand binding, adrenergic α2B ([3H]Rauwolscine). The settings on record: for pKi: read-out: Ki α2B. The method, boiled down:
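Readout: percent inhibition of specific [3H]Rauwolscine binding, measured by filtration and counting. Conditions: CHO-K1 cell-expressed receptor, 2.5 nM radioligand, 60 min, 25° C, Tris-HCl pH 7.4 buffer with MgCl2, EDTA, BSA. Non-specific binding: 10 μM Prazosin.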

Assay [2] deals with T2, human recombinant adrenergic α2A receptor (Homo sapiens, UniProt P08913).
T2 construct: expressed in transfected cells; host or cells: insect Sf9 cells
T2 sequence (P08913 1-465): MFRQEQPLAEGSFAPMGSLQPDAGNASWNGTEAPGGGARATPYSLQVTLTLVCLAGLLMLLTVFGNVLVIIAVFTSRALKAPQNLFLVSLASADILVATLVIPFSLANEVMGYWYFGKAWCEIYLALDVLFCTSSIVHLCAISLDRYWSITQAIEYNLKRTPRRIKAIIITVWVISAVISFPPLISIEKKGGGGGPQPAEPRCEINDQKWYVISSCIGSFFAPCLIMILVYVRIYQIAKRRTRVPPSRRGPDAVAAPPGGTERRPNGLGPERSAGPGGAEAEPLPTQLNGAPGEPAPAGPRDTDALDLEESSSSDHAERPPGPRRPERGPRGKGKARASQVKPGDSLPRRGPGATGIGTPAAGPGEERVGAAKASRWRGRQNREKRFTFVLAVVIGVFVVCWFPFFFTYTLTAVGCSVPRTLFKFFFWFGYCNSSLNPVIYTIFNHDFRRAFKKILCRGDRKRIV
Nature of the assay: Radioligand binding, adrenergic α2A ([3H]MK-912). The following applies: for Percentage inhibition of ligand binding, Adrenergic α2A (0.1 μM) / Percentage inhibition of ligand binding, Adrenergic α2A: 0.1 µM. The method, boiled down: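 In 50 mM Tris-HCl (pH 7.4) containing 12.5 mM MgCl2 and 2 mM EDTA, Sf9-expressed receptor was exposed to test compound plus 1 nM [3H]MK-912 at 25 °C for 60 min. Specific binding, corrected using 10 μM WB-4101, was quantified by filtration and counting and expressed as percent inhibition.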

The target in assay [3] is T3, rat adrenergic α1B receptor (Rattus norvegicus, UniProt P15823).
T3 construct: rat adrenergic α1B receptor obtained from Wistar Rat liver; from tissue; host or cells: Wistar rat liver
T3 sequence (P15823 1-515): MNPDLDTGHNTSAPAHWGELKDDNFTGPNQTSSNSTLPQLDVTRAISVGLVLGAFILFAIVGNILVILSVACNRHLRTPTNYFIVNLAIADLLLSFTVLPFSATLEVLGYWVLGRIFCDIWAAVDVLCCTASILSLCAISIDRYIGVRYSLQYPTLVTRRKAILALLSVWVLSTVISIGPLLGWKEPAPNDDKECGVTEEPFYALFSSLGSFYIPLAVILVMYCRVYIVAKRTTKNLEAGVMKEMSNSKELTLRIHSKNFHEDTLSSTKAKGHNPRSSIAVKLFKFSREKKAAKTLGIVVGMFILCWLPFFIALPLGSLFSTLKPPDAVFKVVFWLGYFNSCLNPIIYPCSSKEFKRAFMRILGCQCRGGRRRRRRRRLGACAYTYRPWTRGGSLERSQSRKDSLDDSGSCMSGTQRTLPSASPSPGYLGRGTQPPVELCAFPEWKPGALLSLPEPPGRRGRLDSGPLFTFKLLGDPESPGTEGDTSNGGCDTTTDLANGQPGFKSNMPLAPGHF
Briefly: Radioligand binding, adrenergic α1B ([3H]Prazosin). The settings on record: for Percentage inhibition of ligand binding, Adrenergic α1B (0.1 μM) / Percentage inhibition of ligand binding, Adrenergic α1B: 0.1 µM. The essentials:
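Filter binding with Wistar rat liver α1B preparation: test compound plus 0.25 nM [3H]prazosin, 1 h at 25° C in modified Tris-HCl buffer pH 7.4.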

Setting [4] is: compound at 0.03 μM, [3H]Rauwolscine, repeat datapoints each shown, 0.03 µM.
The mark [5] stands for this setting: compound at 0.1 μM, [3H]MK-912, repeat datapoints each shown.
[6] abbreviates: compound at 0.1 μM, [3H]Prazosin, repeat datapoints each shown.
The mark [7] stands for this setting: read-out: Percentage inhibition of ligand binding, Adrenergic α2B (0.03 μM), compound at 0.03 μM, [3H]Rauwolscine, repeat datapoints each shown.
Setting [8] is: read-out: Percentage inhibition of ligand binding, Adrenergic α1B (0.1 μM), compound at 0.1 μM, [3H]Prazosin, repeat datapoints each shown.
The mark [9] stands for this setting: compound at 0.03 μM, [3H]Rauwolscine, repeat assays, each datapoint shown, 0.03 µM.
Setting [10] is: compound at 0.1 μM, [3H]MK-912, repeat assays, each datapoint shown, read-out: Percentage inhibition of ligand binding, Adrenergic α2A.
Setting [11] is: compound at 0.1 μM, [3H]Prazosin, repeat assays, each datapoint shown, read-out: Percentage inhibition of ligand binding, Adrenergic α1B.
[12] abbreviates: compound at 0.03 μM, [3H]Rauwolscine, repeat assays, each datapoint shown, read-out: Percentage inhibition of ligand binding, Adrenergic α2B.
[13] abbreviates: compound at 0.1 μM, [3H]MK-912, repeat assays, each datapoint shown.
The mark [14] stands for this setting: compound at 0.1 μM, [3H]Prazosin, repeat assays, each datapoint shown.
Where [15] appears, read: read-out: Percentage inhibition of ligand binding, Adrenergic α2A (0.1 μM), compound at 0.1 μM, [3H]MK-912, repeat datapoints each shown.
Where [16] appears, read: 0.03 μM compound, read-out: Percentage inhibition of ligand binding, Adrenergic α2B.

pKi: −log10 of the molar value. Several values for one entry are separate records, joined by “and”; a condition that tells them apart may be missing. Equal values may be shown once. Read-outs that look alike come from different tables or passages of the source.

What is called pKi is the negative decadic logarithm of the Ki, by convention in mol/L. One may read the inhibition as the relative decrease from the control value, in per cent.

For `CN1CCc2c(c3ccccc3n2CC(C)(O)c2cccnc2)C1` (single isomer, unassigned) [173b], the “Percentage inhibition of ligand binding, Adrenergic α2B (0.03 μM)” value (“Percentage inhibition … (0.03 μM)” below) in assay [1] (setting [4]) worked out at 28%. Also, the “Percentage inhibition of ligand binding, Adrenergic α2A (0.1 μM)” value in assay [2] (setting [5]) is −2%. Further, in assay [3] (setting [6]), the “Percentage inhibition of ligand binding, Adrenergic α1B (0.1 μM)” value amounted to 8%.
In the case of `Cc1ccc2c(c1)c1c(n2CCc2ccc(C)nc2)CCN2CCCC12` (single isomer, unassigned) [197b, 9-methyl-6-[2-(6-methyl-pyridin-3-yl)-ethyl]-2,3,4,5,6,10c-hexahydro-1H-3a, 6-diaza-cyclopenta[c]fluorene], the “Percentage inhibition … (0.03 μM)” value in assay [1] (setting [4]) came to 105%. Also, the pKi in assay [1] was 9.11; in assay [2], 7.92. Moreover, the inhibition at 0.03 µM came to 101% in assay [1] (setting [7]); 50% in assay [2] (read-out: Percentage inhibition of ligand binding, Adrenergic α2A (0.03 μM), compound at 0.03 μM, [3H]MK-912, repeat datapoints each shown); 89% in assay [3] (read-out: Percentage inhibition of ligand binding, Adrenergic α1B (0.03 μM), compound at 0.03 μM, [3H]Prazosin, repeat datapoints each shown). Moreover, the “Percentage inhibition of ligand binding, Adrenergic α2A (0.1 μM)” value in assay [2] (setting [5]) was 56% and 77%. Further, the inhibition at 0.1 µM in assay [3] (setting [8]) came out at 96%.
As for `Cc1ccc2c(c1)c1c(n2CC(O)c2ccncc2)CCNC1` (single isomer, unassigned) [39b, 2-(8-methyl-1,2,3,4-tetrahydro-pyrido[4,3-b]indol-5-yl)-1-pyridin-4-yl-ethanol], in assay [1] (setting [9]), the “Percentage inhibition of ligand binding, Adrenergic α2B” value was 28%. In addition, the inhibition at 0.1 µM in assay [2] (setting [10]) is 1%; in assay [3] (setting [11]) it was 24%.
Take `Cc1ccc2c(c1)c1c(n2CC(O)c2ccc(C(=O)O)cc2)CCN(C)C1` (centres unmarked) [compound 67, 4-[2-(2,8-dimethyl-1,2,3,4-tetrahydro-pyrido[4,3-b]indol-5-yl)-1-hydroxy-ethyl]-benzoic acid]: the inhibition at 0.03 µM in assay [1] (setting [12]) is 17%. The inhibition at 0.1 µM in assay [2] (setting [10]) is -7%; in assay [3] (setting [11]) it was 12%.
As for `Cc1ccc2c(c1)c1c(n2CC(C)(N)c2cccnc2)CCN(C)C1` (single isomer, unassigned) [149a, 1-(2,8-dimethyl-3,4-dihydro-1H-pyrido[4,3-b]indol-5(2H)-yl)-2-(pyridin-3-yl)propan-2-amine], in assay [1] (setting [7]), the inhibition at 0.03 µM came out at 16%. For the same compound, in assay [2] (setting [5]), the “Percentage inhibition of ligand binding, Adrenergic α2A (0.1 μM)” value was −4%. In addition, the inhibition at 0.1 µM in assay [3] (setting [8]) came out at 12%.
Take `CC(C)(O)CCN1CCc2c(c3cc(Cl)ccc3n2CC(O)c2ccncc2)C1` (single isomer, unassigned) [11b, 4-[8-chloro-5-(2-hydroxy-2-pyridin-4-yl-ethyl)-1,3,4,5-tetrahydro-pyrido[4,3-b]indol-2-yl]-2-methyl-butan-2-ol]: in assay [1] (setting [9]), the “Percentage inhibition of ligand binding, Adrenergic α2B” value is recorded as 64%. Moreover, the “Percentage inhibition of ligand binding, Adrenergic α2A” value in assay [2] (setting [13]) worked out at 13%. The “Percentage inhibition of ligand binding, Adrenergic α1B” value in assay [3] (setting [14]) is 18%.
For the compound `CN1CCc2c(c3ccc(Cl)cc3n2CC(O)c2ccncc2)C1` (single isomer, unassigned) [53b, 2-(7-chloro-2-methyl-3,4-dihydro-1H-pyrido[4,3-b]indol-5(2H)-yl)-1-(pyridin-4-yl)ethanol], the “Percentage inhibition of ligand binding, Adrenergic α2B” value in assay [1] (setting [9]) came out at 85%. The “Percentage inhibition of ligand binding, Adrenergic α2A” value in assay [2] (setting [13]) was found to be 12%. In addition, in assay [3] (setting [14]), the “Percentage inhibition of ligand binding, Adrenergic α1B” value turned out to be 14%.
For the compound `CN1CCc2c(n(CC(O)c3ccncc3)c3ccc(Cl)cc23)CC1` (single isomer, unassigned) [15b, 2-(9-chloro-3-methyl-2,3,4,5-tetrahydroazepino[4,5-b]indol-6(1H)-yl)-1-(pyridin-4-yl)ethanol], the inhibition at 0.03 µM in assay [1] (setting [12]) turned out to be 103%; in assay [3] (compound at 0.03 μM, [3H]Prazosin, repeat assays, each datapoint shown, read-out: Percentage inhibition of ligand binding, Adrenergic α1B), 73%. In addition, the pKi in assay [1] was 9.19; in assay [2], 6.95. For the same compound, the “Percentage inhibition of ligand binding, Adrenergic α2A” value in assay [2] (setting [13]) is recorded as 24%. Also, the inhibition at 0.1 µM in assay [2] (setting [10]) came to 21%; in assay [3] (setting [11]), 89%. In assay [3] (setting [14]), the “Percentage inhibition of ligand binding, Adrenergic α1B” value is reported as 93%.
As to `CC(O)(Cn1c2c(c3cc(Cl)ccc31)CNCC2)c1cccnc1` (single isomer, unassigned) [175a], the “Percentage inhibition … (0.03 μM)” value in assay [1] (setting [4]) was 69% and 73%. Further, the pKi in assay [1] is 8.35. Further, the inhibition at 0.1 µM in assay [1] (read-out: Percentage inhibition of ligand binding, Adrenergic α2B (0.1 μM), compound at 0.1 μM, [3H]Rauwolscine, repeat datapoints each shown) was 90%; in assay [2] (setting [15]), 11%. For the same compound, in assay [3] (setting [6]), the “Percentage inhibition of ligand binding, Adrenergic α1B (0.1 μM)” value was determined as 11%.
`CC(=O)OC(C)(Cn1c2c(c3cc(C)ccc31)CN(C)CC2)c1cccnc1` (single isomer, unassigned) [II-15a, acetic acid 2-(2,8-dimethyl-1,2,3,4-tetrahydro-pyrido[4,3-b]indol-5-yl)-1-methyl-1-pyridin-3-yl-ethyl ester]: the inhibition at 0.03 µM in assay [1] (setting [16]) was determined as 47%. In addition, the “Percentage inhibition of ligand binding, Adrenergic α2A” value in assay [2] (0.1 μM compound) stood at 7%. Further, the “Percentage inhibition of ligand binding, Adrenergic α1B” value in assay [3] (0.1 μM compound) is on record as 61%.
For `OC(Cn1c2c(c3cccnc31)C1CCCN1CC2)c1ccncc1` (centres unmarked) [II-79], the inhibition at 0.03 µM in assay [1] (setting [16]) was 59%. Further, the inhibition at 0.1 µM came to 0% in assay [2] (0.1 μM compound, read-out: Percentage inhibition of ligand binding, Adrenergic α2A) and 7% in assay [3] (0.1 μM compound, read-out: Percentage inhibition of ligand binding, Adrenergic α1B).
Consider `Cc1ccc2c(c1)c1c(n2CC(C)(O)c2cccnc2)CCN(C)C1` (single isomer, unassigned) [5a, 1-(1,2,3,4-tetrahydro-2,8-dimethylpyrido[4,3-b]indol-5-yl)-2-(pyridin-3-yl)propan-2-ol], for which the “Percentage inhibition of ligand binding, Adrenergic α2B” value was 29% and 38% in assay [1] (setting [9]); 57% in assay [1] (compound at 0.1 μM, [3H]Rauwolscine, repeat assays, each datapoint shown, 0.1 µM). Also, in assay [1], the negative-log Ki (pKi) was 7.46. Moreover, in assay [2] (setting [13]), the “Percentage inhibition of ligand binding, Adrenergic α2A” value amounted to 0%. The inhibition at 0.1 µM in assay [3] (setting [11]) came out at 18%.
Consider `Cc1ccc2c(c1)c1c(n2CC(C)(O)c2cnccc2Cl)CCN(C)C1` (centres unmarked) [II-148], for which the inhibition at 0.03 µM in assay [1] (setting [7]) turned out to be 93%. The inhibition at 0.1 µM in assay [2] (setting [15]) was determined as 27%; in assay [3] (setting [8]), 21%.

Source of the values: patent US8791132B2, “Compounds and methods for treatment of hypertension” (Medivation Technologies, Inc., priority 2011, dated 2014).
